The source made the active and inactive calls. The rule behind the calls is not given here.
Experiments:
[1] = system: Rattus norvegicus; assay: Tmax in rat assessed as (S)-2-(2,6-difluorobenzamido)-3-(4-(1,3,6-trimethyl-2,4-dioxo-1,2,3,4-tetrahydropyrimidin-5-yl)phenyl)propanoic acid level at 50 mg/kg, po; format: ADME, organism-based; set-up: dose 50 mg/kg, route oral; details: in vivo
[2] = system: Cynomolgus monkey; assay: AUC (0 to 24 hrs) in cynomolgus monkey assessed as (S)-2-(2,6-difluorobenzamido)-3-(4-(1,3,6-trimethyl-2,4-dioxo-1,2,3,4-tetrahydropyrimidin-5-yl)phenyl)propanoic acid level at 30 mg/kg, po; format: ADME, organism-based, Macaca fascicularis, Plasma; set-up: time < 24 hr, dose 30 mg/kg, route oral; details: in vivo
[3] = system: Cynomolgus monkey; assay: Antiinflammatory activity in atopic cynomolgus monkey challenged with aerosolized Ascaris suum extract assessed as reduction in neutrophils influx into lungs at 1 and 30 mg/kg, po administered 4 hrs before antigen challenge measured 48 hrs after antigen challenge; format: functional, organism-based; set-up: dose 30 mg/kg; details: Macaca fascicularis
[4] = system: Canis familiaris; assay: Tmax in dog assessed as (S)-2-(2,6-difluorobenzamido)-3-(4-(1,3,6-trimethyl-2,4-dioxo-1,2,3,4-tetrahydropyrimidin-5-yl)phenyl)propanoic acid level at 50 mg/kg, po; format: ADME, organism-based, Canis lupus familiaris; set-up: dose 50 mg/kg, route oral; details: in vivo
[5] = system: Canis familiaris; assay: Cmax in dog assessed as (S)-2-(2,6-difluorobenzamido)-3-(4-(1,3,6-trimethyl-2,4-dioxo-1,2,3,4-tetrahydropyrimidin-5-yl)phenyl)propanoic acid level at 50 mg/kg, po; format: ADME, organism-based, Canis lupus familiaris; set-up: dose 50 mg/kg, route oral; details: in vivo
[6] = system: Cynomolgus monkey; assay: Antiinflammatory activity in atopic cynomolgus monkey challenged with aerosolized Ascaris suum extract assessed as reduction in lymphocytes influx into lungs at 1 and 30 mg/kg, po administered 4 hrs before antigen challenge measured 48 hrs after antigen challenge; format: functional, organism-based; set-up: dose 30 mg/kg; details: Macaca fascicularis
[7] = system: Rattus norvegicus; assay: Oral bioavailability in rat assessed as (S)-2-(2,6-difluorobenzamido)-3-(4-(1,3,6-trimethyl-2,4-dioxo-1,2,3,4-tetrahydropyrimidin-5-yl)phenyl)propanoic acid level at 50 mg/kg; format: ADME, organism-based; details: in vivo
[8] = Apparent permeability across human Caco2 cells; format: ADME, cell-based; details: Caco-2
[9] = system: Cynomolgus monkey; assay: Tmax in cynomolgus monkey assessed as (S)-2-(2,6-difluorobenzamido)-3-(4-(1,3,6-trimethyl-2,4-dioxo-1,2,3,4-tetrahydropyrimidin-5-yl)phenyl)propanoic acid level at 30 mg/kg, po; format: ADME, organism-based, Macaca fascicularis; set-up: dose 30 mg/kg, route oral; details: in vivo
[10] = Oral bioavailability in rat; format: ADME, organism-based; details: in vivo
[11] = system: Mus musculus; assay: Tmax in mouse assessed as (S)-2-(2,6-difluorobenzamido)-3-(4-(1,3,6-trimethyl-2,4-dioxo-1,2,3,4-tetrahydropyrimidin-5-yl)phenyl)propanoic acid level at 50 mg/kg, po; format: ADME, organism-based; set-up: dose 50 mg/kg, route oral; details: in vivo
[12] = system: Mus musculus; assay: AUC (0 to 24 hrs) in mouse assessed as (S)-2-(2,6-difluorobenzamido)-3-(4-(1,3,6-trimethyl-2,4-dioxo-1,2,3,4-tetrahydropyrimidin-5-yl)phenyl)propanoic acid level at 50 mg/kg, po; format: ADME, organism-based, Plasma; set-up: time < 24 hr, dose 50 mg/kg, route oral; details: in vivo
[13] = system: Rattus norvegicus; assay: Cmax in rat assessed as (S)-2-(2,6-difluorobenzamido)-3-(4-(1,3,6-trimethyl-2,4-dioxo-1,2,3,4-tetrahydropyrimidin-5-yl)phenyl)propanoic acid level at 50 mg/kg, po; format: ADME, organism-based; set-up: dose 50 mg/kg, route oral; details: in vivo
[14] = system: Cynomolgus monkey; assay: Antiinflammatory activity in atopic cynomolgus monkey challenged with aerosolized Ascaris suum extract assessed as reduction in eosinophils influx into lungs at 1 and 30 mg/kg, po administered 4 hrs before antigen challenge measured 48 hrs after antigen challenge; format: functional, organism-based; set-up: dose 30 mg/kg; details: Macaca fascicularis
[15] = system: Cynomolgus monkey; assay: Cmax in cynomolgus monkey assessed as (S)-2-(2,6-difluorobenzamido)-3-(4-(1,3,6-trimethyl-2,4-dioxo-1,2,3,4-tetrahydropyrimidin-5-yl)phenyl)propanoic acid level at 30 mg/kg, po; format: ADME, organism-based, Macaca fascicularis; set-up: dose 30 mg/kg, route oral; details: in vivo
[16] = system: Cynomolgus monkey; assay: Oral bioavailability in cynomolgus monkey assessed as (S)-2-(2,6-difluorobenzamido)-3-(4-(1,3,6-trimethyl-2,4-dioxo-1,2,3,4-tetrahydropyrimidin-5-yl)phenyl)propanoic acid level at 30 mg/kg; format: ADME, organism-based, Macaca fascicularis; details: in vivo
[17] = system: Canis familiaris; assay: AUC (0 to 24 hrs) in dog assessed as (S)-2-(2,6-difluorobenzamido)-3-(4-(1,3,6-trimethyl-2,4-dioxo-1,2,3,4-tetrahydropyrimidin-5-yl)phenyl)propanoic acid level at 50 mg/kg, po; format: ADME, organism-based, Canis lupus familiaris, Plasma; set-up: time < 24 hr, dose 50 mg/kg, route oral; details: in vivo
[18] = system: Mus musculus; assay: Cmax in mouse assessed as (S)-2-(2,6-difluorobenzamido)-3-(4-(1,3,6-trimethyl-2,4-dioxo-1,2,3,4-tetrahydropyrimidin-5-yl)phenyl)propanoic acid level at 50 mg/kg, po; format: ADME, organism-based; set-up: dose 50 mg/kg, route oral; details: in vivo
[19] = system: Mus musculus; assay: Oral bioavailability in mouse assessed as (S)-2-(2,6-difluorobenzamido)-3-(4-(1,3,6-trimethyl-2,4-dioxo-1,2,3,4-tetrahydropyrimidin-5-yl)phenyl)propanoic acid level at 50 mg/kg; format: ADME, organism-based; details: in vivo
[20] = system: Rattus norvegicus; assay: AUC (0 to 24 hrs) in rat assessed as (S)-2-(2,6-difluorobenzamido)-3-(4-(1,3,6-trimethyl-2,4-dioxo-1,2,3,4-tetrahydropyrimidin-5-yl)phenyl)propanoic acid level at 50 mg/kg, po; format: ADME, organism-based, Plasma; set-up: time < 24 hr, dose 50 mg/kg, route oral; details: in vivo
[21] = Distribution coefficient, log D of the compound; format: physicochemical; details: octanol/water
[22] = system: Canis familiaris; assay: Oral bioavailability in dog assessed as (S)-2-(2,6-difluorobenzamido)-3-(4-(1,3,6-trimethyl-2,4-dioxo-1,2,3,4-tetrahydropyrimidin-5-yl)phenyl)propanoic acid level at 50 mg/kg; format: ADME, organism-based, Canis lupus familiaris; details: in vivo

## CCOC(=O)[C@H](Cc1ccc(-c2c(C)n(C)c(=O)n(C)c2=O)cc1)NC(=O)c1c(F)cccc1F
[1]
  Tmax: 1.3 h
[2]
  AUC: 3.146 µg·h/mL
[3]
  Activity: Active
[4]
  Tmax: 1 h
[5]
  Cmax: 0.471 µg/mL
[6]
  Activity: Active
[7]
  F: 9%
[8]
  Papp: 269 nm/s
[9]
  Tmax: 2 h
[10]
  bioavailability: 9%
[11]
  Tmax: 0.25 h
[12]
  AUC: 8.547 µg·h/mL
[13]
  Cmax: 5.287 µg/mL
[14]
  Activity: Active
[15]
  Cmax: 0.337 µg/mL
[16]
  F: 7%
[17]
  AUC: 1.69 µg·h/mL
[18]
  Cmax: 2.988 µg/mL
[19]
  F: 22%
[20]
  AUC: 18.097 µg·h/mL
[21]
  logD: 1.73
[22]
  F: 6%

Reference: ChEMBL document CHEMBL2331362, “Identification of N-acyl 4-(5-pyrimidine-2,4-dionyl)phenylalanine derivatives and their orally active prodrug esters as dual-acting alpha4-beta1 and alpha4-beta7 receptor antagonists” (Bioorg Med Chem Lett, 2013)
